Results: US12122763B2, “Substituted piperidines for androgen receptor degradation” (UBIX THERAPEUTICS, INC., priority 2020, dated 2024)

Biological target: T1, Androgen Receptor (AR) protein (Homo sapiens, UniProt P10275, T878A)
T1 construct: endogenous in cells; host or cells: LNCaP
Assay: Androgen Receptor (AR) protein degradation assay in LNCaP cells, western blotting
Type: cell-based
Settings: 20 h; for inhibition at 0.01 µM: 0.01 μM compound; for inhibition at 0.1 µM: 0.1 μM compound; for inhibition at 1 µM: 1 μM compound
Procedure: Experimental Example 1: Androgen Receptor (AR) Protein Degradation Assay
After treating LNCaP cells with the synthesized Example compound, the amount of AR protein present in the cells was measured. The amount of AR protein was measured using western blotting detection method. The protocol of the experiment using LNCaP cells was as follows:
[Culture] LNCaP cells were resuspended in RPMI1640 MEDIUM (Hyclone, SH30027.01), 10% FBS (Hyclone, SV30207.02), and 1% Penicillin-streptomycin (Welgene, LS 202-02) media to be 3×10^5/mL. Then, 1 mL each was seeded in a 12-well plate. After that, they were cultured for 3 days.
[Compound treatment] 10 μl of 0.1, 1, 10, and 100 μM compound, which is the final compound treatment concentration and a 100× stock of 0.001, 0.01, 0.1, and 1 μM, was added in 1 ml media of each well, and 20 hours later, the cells were harvested.
[Cell Lysis] Cell pellets were suspended using 1% SDS lysis buffer (50 mM Tris, 1 mM EDTA, 1% SDS, pH 8.0, 0.5 mM PMSF, 1× Protease/Phosphatase inhibitor Cocktail (Cell Signaling Technology, 5872s)), and sonication (70% AMP, 5 cycles (30 sec ON/59 sec OFF)) was performed. Cell lysate was obtained after centrifugation at 4° C., 15000 g, for 20 minutes.
[Protein quantification] A BCA protein assay (SMART™ BCA Protein Assay Kit, iNtRON Biotechnology, 21071) was performed using a 96-well microplate. After adding 5 μl cell lysate and 5 μl 1% SDS lysis buffer to each well of the 96-well plate, 200 μl of BCA reagent (Reagent A:Reagent B=50:1) was additionally added. After incubation at 37° C. for 30 minutes, it was cooled at room temperature for 10 minutes. Then, absorbance was measured at a wavelength of 562 nm. The unknown protein concentration was measured using a BSA standard curve (0, 0.125, 0.25, 0.5, 1, 2 mg/ml). Western blotting samples were prepared by mixing cell lysate, 1% SDS lysis buffer, 4× Bolt™ LDS Sample buffer (Invitrogen, B0008), and 10× Bolt™ Sample Reducing Agent (Invitrogen, B0009) and boiling the mixture at 70° C. for 10 minutes.
[Electrophoresis] After loading 8 μg of protein sample into each well of Bolt™ 4 to 12%, Bis-Tris, 1.0 mm Mini Protein Gel, 17-well (Invitrogen, NW04127BOX), Bolt™ MES SDS Running Buffer (Invitrogen, B0002) was used for electrophoresis at 200V (constant V) for 50 minutes.
[Transfer] Using electrophoresis gel and Trans-Blot® Turbo™ Transfer Starter System (Bio-RAD, #17001918, Mini Nitrocellulose), transfer proceeded for 15 minutes under the condition of 1.3A (Constant A) and 25V (Limit V). To confirm protein transfer, 15 ml of Ponceau S solution (Sigma, P7170-1L) was used for staining for 1 minute, followed by washing to confirm the degree of transfer.
[Blocking] Membranes for AR detection were blocked for 45 minutes with 5% skim milk/0.2% TBST (Skim milk: BD, 232100/20× TBS: Biosesang, TR2008-100-00/10% Tween 20 Solution: Bio-RAD, #161-0781). Membranes for GAPDH and β-actin detection were blocked for 45 minutes with Odyssey blocking buffer: 0.1% TBST=1:1 (Odyssey blocking buffer: Li-COR Biosciences, 927-50000).
[Antibody and detection] The primary AR antibody (Androgen Receptor: CST, 5153s) was mixed with 5% skim milk/0.2% TBST at a ratio of 1:1000 and attached for 3 hours at room temperature. Primary β-actin antibody (GeneTex, 629630) was mixed with 5% BSA/0.2% TBST at a ratio of 1:2000 and attached for 3 hours at room temperature. Primary GAPDH antibody (GeneTex, 100118) was mixed with 5% BSA/0.2% TBST at a ratio of 1:2000 and attached for 3 hours at room temperature. After 3 hours, it was washed 3 times every 5 minutes using TBST (0.2% Tween 20). Anti-rabbit IgG, HRP-linked Antibody (CST, 7074s), secondary antibody for the AR antibody was mixed with 5% skim milk/0.2% TBST at a ratio of 1:5000 and attached for 45 minutes at room temperature. […]

T1 sequence (P10275 whole entry T878A): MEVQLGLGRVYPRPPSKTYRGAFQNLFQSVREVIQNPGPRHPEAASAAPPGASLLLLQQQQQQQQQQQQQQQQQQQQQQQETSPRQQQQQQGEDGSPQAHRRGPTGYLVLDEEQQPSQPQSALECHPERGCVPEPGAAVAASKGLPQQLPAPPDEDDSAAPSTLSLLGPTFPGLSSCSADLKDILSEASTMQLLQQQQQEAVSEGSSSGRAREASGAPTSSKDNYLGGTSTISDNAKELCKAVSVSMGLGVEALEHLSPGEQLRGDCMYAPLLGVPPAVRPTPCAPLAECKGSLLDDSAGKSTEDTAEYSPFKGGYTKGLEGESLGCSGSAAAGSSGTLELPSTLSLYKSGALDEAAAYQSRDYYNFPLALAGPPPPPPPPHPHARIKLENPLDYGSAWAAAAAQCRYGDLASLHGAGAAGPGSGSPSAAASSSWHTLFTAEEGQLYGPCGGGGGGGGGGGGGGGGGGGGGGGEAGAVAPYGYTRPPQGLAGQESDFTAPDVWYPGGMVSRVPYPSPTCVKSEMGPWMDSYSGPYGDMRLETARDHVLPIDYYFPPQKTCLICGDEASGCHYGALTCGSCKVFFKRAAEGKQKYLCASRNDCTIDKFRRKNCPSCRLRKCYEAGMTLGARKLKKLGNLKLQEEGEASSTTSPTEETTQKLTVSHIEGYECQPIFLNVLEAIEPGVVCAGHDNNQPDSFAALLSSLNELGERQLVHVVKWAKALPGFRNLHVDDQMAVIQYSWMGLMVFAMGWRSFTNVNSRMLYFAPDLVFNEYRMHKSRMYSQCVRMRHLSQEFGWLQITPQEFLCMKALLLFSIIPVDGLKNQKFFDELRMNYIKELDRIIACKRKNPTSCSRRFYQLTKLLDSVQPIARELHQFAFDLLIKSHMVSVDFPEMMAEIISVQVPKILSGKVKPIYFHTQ
T1 sequence (Q96SW2 whole entry partner): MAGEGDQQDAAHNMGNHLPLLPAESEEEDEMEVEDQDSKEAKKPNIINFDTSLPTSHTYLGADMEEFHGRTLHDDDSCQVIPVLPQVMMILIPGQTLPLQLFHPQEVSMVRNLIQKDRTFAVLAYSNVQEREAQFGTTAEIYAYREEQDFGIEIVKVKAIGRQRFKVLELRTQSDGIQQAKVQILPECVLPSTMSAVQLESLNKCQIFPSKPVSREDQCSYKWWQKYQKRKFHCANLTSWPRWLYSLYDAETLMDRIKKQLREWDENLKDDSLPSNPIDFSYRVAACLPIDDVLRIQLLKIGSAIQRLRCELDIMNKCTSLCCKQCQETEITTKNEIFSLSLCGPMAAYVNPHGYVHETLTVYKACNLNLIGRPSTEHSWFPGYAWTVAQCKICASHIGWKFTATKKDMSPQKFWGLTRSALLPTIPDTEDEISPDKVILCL

| Structure (SMILES) | inhibition at 0.01 µM [%] | inhibition at 0.1 µM [%] | inhibition at 1 µM [%] |
| --- | --- | --- | --- |
| C[C@@H]1CN(CC2CCN(c3ccc(NC(=O)C4CCN(c5ccc(C#N)c(C(F)(F)F)c5)CC4)nc3)CC2)CCN1CC1CCN(c2ccc3c(c2)C(=O)N(C2CCC(=O)NC2=O)C3=O)CC1 (stereo partly drawn) [Example 25, 1-(4-cyano-3-(trifluoromethyl)phenyl)-N-(5-(4-(((3R)-4-((1-(2-(2,6-dioxopiperidin-3-yl)-1,3-dioxoisoindolin-5-yl)piperidin-4-yl)methyl)-3-methylpiperazin-1-yl)methyl)piperidin-1-yl)pyridin-2-yl)piperidine-4-carboxamide] | 73 | 98 | 98 |
| C[C@@H]1CN(CC2CCN(c3ccc(NC(=O)C4CCN(c5ccc(C#N)c(C(F)(F)F)c5)CC4)nc3)CC2)CCN1CC1CN(c2ccc3c(c2)C(=O)N(C2CCC(=O)NC2=O)C3=O)C1 (stereo partly drawn) [Example 26, 1-(4-cyano-3-(trifluoromethyl)phenyl)-N-(5-(4-(((3R)-4-((1-(2-(2,6-dioxopiperidin-3-yl)-1,3-dioxoisoindolin-5-yl)azetidin-3-yl)methyl)-3-methylpiperazin-1-yl)methyl)piperidin-1-yl)pyridin-2-yl)piperidine-4-carboxamide] | 75 | 98 | 98 |
| N#Cc1ccc(N2CCC(C(=O)Nc3ccc(N4CC(CN5CCN(CC6CCN(c7ccc8c(c7)C(=O)N(C7CCC(=O)NC7=O)C8=O)CC6)CC5)C4)cn3)CC2)cc1C(F)(F)F (stereo not drawn) [Example 27, 1-(4-cyano-3-(trifluoromethyl)phenyl)-N-(5-(3-((4-((1-(2-(2,6-dioxopiperidin-3-yl)-1,3-dioxoisoindolin-5-yl)piperidin-4-yl)methyl)piperazin-1-yl)methyl)azetidin-1-yl)pyridin-2-yl)piperidine-4-carboxamide] | 78 | 97 | 97 |
| N#Cc1ccc(N2CCC(C(=O)Nc3ccc(N4CC(CN5CCN(C[C@H]6CCN(c7ccc8c(c7)C(=O)N(C7CCC(=O)NC7=O)C8=O)C6)CC5)C4)cn3)CC2)cc1C(F)(F)F (stereo partly drawn) [Example 28, 1-(4-cyano-3-(trifluoromethyl)phenyl)-N-(5-(3-((4-(((3R)-1-(2-(2,6-dioxopiperidin-3-yl)-1,3-dioxoisoindolin-5-yl)pyrrolidin-3-yl)methyl)piperazin-1-yl)methyl)azetidin-1-yl)pyridin-2-yl)piperidine-4-carboxamide] | 82 | 96 | 95 |
| N#Cc1ccc(N2CCC(C(=O)Nc3ccc(N4CC(CN5CCN(C[C@@H]6CCN(c7ccc8c(c7)C(=O)N(C7CCC(=O)NC7=O)C8=O)C6)CC5)C4)cn3)CC2)cc1C(F)(F)F (stereo partly drawn) [Example 29, 1-(4-cyano-3-(trifluoromethyl)phenyl)-N-(5-(3-((4-(((3S)-1-(2-(2,6-dioxopiperidin-3-yl)-1,3-dioxoisoindolin-5-yl)pyrrolidin-3-yl)methyl)piperazin-1-yl)methyl)azetidin-1-yl)pyridin-2-yl)piperidine-4-carboxamide] | 80 | 97 | 97 |
| N#Cc1ccc(N2CCC(C(=O)Nc3ccc(N4CC(CN5CCN(CC6CN(c7ccc8c(c7)C(=O)N(C7CCC(=O)NC7=O)C8=O)C6)CC5)C4)cn3)CC2)cc1C(F)(F)F (stereo not drawn) [Example 30, 1-(4-cyano-3-(trifluoromethyl)phenyl)-N-(5-(3-((4-((1-(2-(2,6-dioxopiperidin-3-yl)-1,3-dioxoisoindolin-5-yl)azetidin-3-yl)methyl)piperazin-1-yl)methyl)azetidin-1-yl)pyridin-2-yl)piperidine-4-carboxamide] | 78 | 99 | 97 |
| C[C@@H]1CN(CC2CN(c3ccc4c(c3)C(=O)N(C3CCC(=O)NC3=O)C4=O)C2)CCN1CC1CN(c2ccc(NC(=O)C3CCN(c4ccc(C#N)c(C(F)(F)F)c4)CC3)nc2)C1 (stereo partly drawn) [Example 31, 1-(4-cyano-3-(trifluoromethyl)phenyl)-N-(5-(3-(((2R)-4-((1-(2-(2,6-dioxopiperidin-3-yl)-1,3-dioxoisoindolin-5-yl)azetidin-3-yl)methyl)-2-methylpiperazin-1-yl)methyl)azetidin-1-yl)pyridin-2-yl)piperidine-4-carboxamide] | 67 | 99 | 97 |
| C[C@@H]1CN(CC2CN(c3ccc(NC(=O)C4CCN(c5ccc(C#N)c(C(F)(F)F)c5)CC4)nc3)C2)CCN1CC1CN(c2ccc3c(c2)C(=O)N(C2CCC(=O)NC2=O)C3=O)C1 (stereo partly drawn) [Example 32, 1-(4-cyano-3-(trifluoromethyl)phenyl)-N-(5-(3-(((3R)-4-((1-(2-(2,6-dioxopiperidin-3-yl)-1,3-dioxoisoindolin-5-yl)azetidin-3-yl)methyl)-3-methylpiperazin-1-yl)methyl)azetidin-1-yl)pyridin-2-yl)piperidine-4-carboxamide] | 62 | 99 | 99 |
| N#Cc1ccc(N2CCC(C(=O)Nc3ccc(N4CCC(CN5CCN(C6CN(c7ccc8c(n7)CN(C7CCC(=O)NC7=O)C8=O)C6)CC5)CC4)cn3)CC2)cc1C(F)(F)F (stereo not drawn) [Example 33, 1-(4-cyano-3-(trifluoromethyl)phenyl)-N-(5-(4-((4-(1-(6-(2,6-dioxopiperidin-3-yl)-5-oxo-6,7-dihydro-5H-pyrrolo[3,4-b]pyridin-2-yl)azetidin-3-yl)piperazin-1-yl)methyl)piperidin-1-yl)pyridin-2-yl)piperidine-4-carboxamide] | 54 | 90 | 72 |
| N#Cc1ccc(N2CCC(C(=O)Nc3ccc(N4CCC(CN5CCN(CC6CCN(c7ccc8c(n7)CN(C7CCC(=O)NC7=O)C8=O)CC6)CC5)CC4)cn3)CC2)cc1C(F)(F)F (stereo not drawn) [Example 34, 1-(4-cyano-3-(trifluoromethyl)phenyl)-N-(5-(4-((4-((1-(6-(2,6-dioxopiperidin-3-yl)-5-oxo-6,7-dihydro-5H-pyrrolo[3,4-b]pyridin-2-yl)piperidin-4-yl)methyl)piperazin-1-yl)methyl)piperidin-1-yl)pyridin-2-yl)piperidine-4-carboxamide] | 88 | 99 | 96 |
| N#Cc1ccc(N2CCC(C(=O)Nc3ccc(N4CCC(CN5CCN(C6CN(c7ccc8c(c7)C(=O)N(C7CCC(=O)NC7=O)C8=O)C6)CC5)CC4)cn3)CC2)cc1C(F)(F)F (stereo not drawn) [Example 35, 1-(4-cyano-3-(trifluoromethyl)phenyl)-N-(5-(4-((4-(1-(2-(2,6-dioxopiperidin-3-yl)-1,3-dioxoisoindolin-5-yl)azetidin-3-yl)piperazin-1-yl)methyl)piperidin-1-yl)pyridin-2-yl)piperidine-4-carboxamide] | 71 | 97 | 95 |
| N#Cc1ccc(N2CCC(C(=O)Nc3ccc(N4CC(CN5CCN(C6CN(c7ccc8c(c7)C(=O)N(C7CCC(=O)NC7=O)C8=O)C6)CC5)C4)cn3)CC2)cc1C(F)(F)F (stereo not drawn) [Example 36, 1-(4-cyano-3-(trifluoromethyl)phenyl)-N-(5-(3-((4-(1-(2-(2,6-dioxopiperidin-3-yl)-1,3-dioxoisoindolin-5-yl)azetidin-3-yl)piperazin-1-yl)methyl)azetidin-1-yl)pyridin-2-yl)piperidine-4-carboxamide] | 66 | 94 | 94 |
